{"source": "paper PMC10817917", "about": "“Alkyl deoxyglycoside-polymyxin combinations against critical priority carbapenem-resistant gram-negative bacteria” (Scientific Reports, 2024)", "key": {"K. pneumoniae CQ4921": {"tested_on": "K. pneumoniae CQ4921", "test": "Broth microdilution MIC/MBC, glycosides with or without polymyxins", "assay_type": "cell-based, Klebsiella pneumoniae", "details": "for MIC: Klebsiella pneumoniae, CQ4921"}, "E. coli ATCC 25922": {"tested_on": "E. coli ATCC 25922", "test": "Broth microdilution MIC/MBC, glycosides with or without polymyxins", "assay_type": "cell-based, Escherichia coli", "details": "for MIC: Escherichia coli, ATCC25922"}, "E. cloacae CQ1941": {"tested_on": "E. cloacae CQ1941", "test": "Broth microdilution MIC/MBC, glycosides with or without polymyxins", "assay_type": "cell-based", "details": "for MIC: Enterobacter cloacae, CQ1941"}, "K. pneumoniae CQ1942": {"tested_on": "K. pneumoniae CQ1942", "test": "Broth microdilution MIC, glycosides with or without polymyxins", "assay_type": "cell-based, Klebsiella pneumoniae", "details": "for MIC: Klebsiella pneumoniae, CQ1942"}, "[1]": {"details": "alone, read-out: MICA (MIC of each compound individually)"}, "[2]": {"details": "combination with the lowest FICI"}, "[3]": {"details": "compound + colistin, lowest FICI"}}, "note": "Several values for one entry are separate records, joined by “and”; a condition that tells them apart may be missing. Equal entries are not always repeated. Where two headings read alike, the source gives them in different places.", "data": [{"smiles": "CCCCCCCCCCCCO[C@@H]1O[C@H](C)C[C@H](O)[C@H]1O", "note": "[Compound 2, dodecyl 4,6-dideoxy-α/β-D-xylo-hexopyranoside]", "values": [{"measurement": "MIC of colistin in combination with the compound", "setting": "K. pneumoniae CQ4921; Cpd conc. 3.125 μg/mL, strain C", "result": 0.125, "unit": "µg/mL"}, {"measurement": "MIC of colistin in combination with the compound", "setting": "K. pneumoniae CQ4921; Cpd conc. 6.25 μg/mL, strain C", "result": 0.125, "unit": "µg/mL"}, {"measurement": "MIC of colistin in combination with the compound", "setting": "K. pneumoniae CQ4921; Cpd conc. 12.5 μg/mL, strain C", "result": 0.125, "unit": "µg/mL"}, {"measurement": "MIC of colistin in combination with the compound", "setting": "K. pneumoniae CQ4921; Cpd conc. […], strain C", "result": 0.5, "unit": "µg/mL"}, {"measurement": "MIC", "setting": "K. pneumoniae CQ4921; agent alone, no adjuvant (polymyxin conc. 0), strain C, read-out: MIC", "result": "> 100", "unit": "µg/mL"}, {"measurement": "MIC", "setting": "K. pneumoniae CQ4921; [1]", "result": "> 100", "unit": "µg/mL"}, {"measurement": "MIC of compound in combination with PMB", "setting": "K. pneumoniae CQ4921; PMB 0.5 μg/mL, strain C", "result": "≤ 0.1", "unit": "µg/mL"}, {"measurement": "MIC of compound in combination with colistin", "setting": "K. pneumoniae CQ4921; colistin 0.06 μg/mL, strain C", "result": "> 100", "unit": "µg/mL"}, {"measurement": "MBC of compound in combination with colistin", "setting": "K. pneumoniae CQ4921; colistin 0.125 μg/mL, strain C", "result": 6.3, "unit": "µg/mL"}, {"measurement": "MIC of compound in combination with colistin", "setting": "K. pneumoniae CQ4921; colistin 0.125 μg/mL, strain C", "result": 3.1, "unit": "µg/mL"}, {"measurement": "MIC of compound in combination with colistin", "setting": "K. pneumoniae CQ4921; colistin 0.25 μg/mL, strain C", "result": 3.1, "unit": "µg/mL"}, {"measurement": "MIC of compound in combination with colistin", "setting": "K. pneumoniae CQ4921; colistin 0.5 μg/mL, strain C", "result": "≤ 0.1", "unit": "µg/mL"}, {"measurement": "MICA(A + B) (MIC of compound in combination with colistin)", "setting": "K. pneumoniae CQ4921; [2]", "result": 3.125, "unit": "µg/mL"}, {"measurement": "MICB(A + B) (MIC of colistin in combination with compound)", "setting": "K. pneumoniae CQ4921; [2]", "result": 0.125, "unit": "µg/mL"}, {"measurement": "Interpretation (of FICI)", "setting": "K. pneumoniae CQ4921; compound + colistin", "result": "Synergy (Values ≤ 0.5 were considered synergistic)"}, {"measurement": "FICI", "setting": "K. pneumoniae CQ4921; [3]", "result": 0.27}, {"measurement": "MIC of colistin in combination with the compound", "setting": "E. coli ATCC 25922; Cpd conc. 0.4 μg/mL, strain A", "result": "> 0.5", "unit": "µg/mL"}, {"measurement": "MIC of colistin in combination with the compound", "setting": "E. coli ATCC 25922; Cpd conc. 0.8 μg/mL, strain A", "result": 0.5, "unit": "µg/mL"}, {"measurement": "MIC of colistin in combination with the compound", "setting": "E. coli ATCC 25922; Cpd conc. 3.125 μg/mL, strain A", "result": "≤ 0.06", "unit": "µg/mL"}, {"measurement": "MIC of colistin in combination with the compound", "setting": "E. coli ATCC 25922; Cpd conc. 6.25 μg/mL, strain A", "result": "≤ 0.06", "unit": "µg/mL"}, {"measurement": "MIC of colistin in combination with the compound", "setting": "E. coli ATCC 25922; Cpd conc. 12.5 μg/mL, strain A", "result": "≤ 0.06", "unit": "µg/mL"}, {"measurement": "MIC of colistin in combination with the compound", "setting": "E. coli ATCC 25922; Cpd conc. […], strain A", "result": 0.5, "unit": "µg/mL"}, {"measurement": "MIC", "setting": "E. coli ATCC 25922; agent alone, no adjuvant (polymyxin conc. 0), strain A, read-out: MIC", "result": "> 100", "unit": "µg/mL"}, {"measurement": "MIC", "setting": "E. coli ATCC 25922; [1]", "result": "> 100", "unit": "µg/mL"}, {"measurement": "MIC of compound in combination with PMB", "setting": "E. coli ATCC 25922; PMB 0.5 μg/mL, strain A", "result": 0.8, "unit": "µg/mL"}, {"measurement": "MIC of compound in combination with colistin", "setting": "E. coli ATCC 25922; colistin 0.06 μg/mL, strain A", "result": 3.1, "unit": "µg/mL"}, {"measurement": "MBC of compound in combination with colistin", "setting": "E. coli ATCC 25922; colistin 0.125 μg/mL, strain A", "result": "3.1|3.1 μg/mL"}, {"measurement": "MIC of compound in combination with colistin", "setting": "E. coli ATCC 25922; colistin 0.125 μg/mL, strain A", "result": "3.1 μg/mL and 3.1|3.1 μg/mL"}, {"measurement": "MIC of compound in combination with colistin", "setting": "E. coli ATCC 25922; colistin 0.25 μg/mL, strain A", "result": 3.1, "unit": "µg/mL"}, {"measurement": "MIC of compound in combination with colistin", "setting": "E. coli ATCC 25922; colistin 0.5 μg/mL, strain A", "result": 0.4, "unit": "µg/mL"}, {"measurement": "MICA(A + B) (MIC of compound in combination with colistin)", "setting": "E. coli ATCC 25922; [2]", "result": 3.125, "unit": "µg/mL"}, {"measurement": "MICB(A + B) (MIC of colistin in combination with compound)", "setting": "E. coli ATCC 25922; [2]", "result": 0.06, "unit": "µg/mL"}, {"measurement": "Interpretation (of FICI)", "setting": "E. coli ATCC 25922; compound + colistin", "result": "Synergy (Values ≤ 0.5 were considered synergistic)"}, {"measurement": "FICI", "setting": "E. coli ATCC 25922; [3]", "result": 0.14}, {"measurement": "MIC of colistin in combination with the compound", "setting": "E. cloacae CQ1941; Cpd conc. 0.4 μg/mL, strain D", "result": 0.5, "unit": "µg/mL"}, {"measurement": "MIC of colistin in combination with the compound", "setting": "E. cloacae CQ1941; Cpd conc. 0.8 μg/mL, strain D", "result": 0.5, "unit": "µg/mL"}, {"measurement": "MIC of colistin in combination with the compound", "setting": "E. cloacae CQ1941; Cpd conc. 3.125 μg/mL, strain D", "result": 0.25, "unit": "µg/mL"}, {"measurement": "MIC of colistin in combination with the compound", "setting": "E. cloacae CQ1941; Cpd conc. 6.25 μg/mL, strain D", "result": 0.25, "unit": "µg/mL"}, {"measurement": "MIC of colistin in combination with the compound", "setting": "E. cloacae CQ1941; Cpd conc. 12.5 μg/mL, strain D", "result": 0.125, "unit": "µg/mL"}, {"measurement": "MIC of colistin in combination with the compound", "setting": "E. cloacae CQ1941; Cpd conc. […], strain D", "result": 0.25, "unit": "µg/mL"}, {"measurement": "MIC", "setting": "E. cloacae CQ1941; agent alone, no adjuvant (polymyxin conc. 0), strain D, read-out: MIC", "result": "> 100", "unit": "µg/mL"}, {"measurement": "MIC", "setting": "E. cloacae CQ1941; [1]", "result": "> 100", "unit": "µg/mL"}, {"measurement": "MIC of compound in combination with PMB", "setting": "E. cloacae CQ1941; PMB 0.25 μg/mL, strain D", "result": 12.5, "unit": "µg/mL"}, {"measurement": "MIC of compound in combination with PMB", "setting": "E. cloacae CQ1941; PMB 0.5 μg/mL, strain D", "result": "≤ 0.1", "unit": "µg/mL"}, {"measurement": "MIC of compound in combination with colistin", "setting": "E. cloacae CQ1941; colistin 0.06 μg/mL, strain D", "result": "> 100", "unit": "µg/mL"}, {"measurement": "MBC of compound in combination with colistin", "setting": "E. cloacae CQ1941; colistin 0.125 μg/mL, strain D", "result": 25, "unit": "µg/mL"}, {"measurement": "MIC of compound in combination with colistin", "setting": "E. cloacae CQ1941; colistin 0.125 μg/mL, strain D", "result": 12.5, "unit": "µg/mL"}, {"measurement": "MIC of compound in combination with colistin", "setting": "E. cloacae CQ1941; colistin 0.25 μg/mL, strain D", "result": 1.6, "unit": "µg/mL"}, {"measurement": "MIC of compound in combination with colistin", "setting": "E. cloacae CQ1941; colistin 0.5 μg/mL, strain D", "result": "≤ 0.1", "unit": "µg/mL"}, {"measurement": "MICA(A + B) (MIC of compound in combination with colistin)", "setting": "E. cloacae CQ1941; [2]", "result": 12.5, "unit": "µg/mL"}, {"measurement": "MICB(A + B) (MIC of colistin in combination with compound)", "setting": "E. cloacae CQ1941; [2]", "result": 0.125, "unit": "µg/mL"}, {"measurement": "FICI", "setting": "E. cloacae CQ1941; [3]", "result": 0.31}, {"measurement": "MIC of colistin in combination with the compound", "setting": "K. pneumoniae CQ1942; Cpd conc. 0.4 μg/mL, strain E", "result": 0.5, "unit": "µg/mL"}, {"measurement": "MIC of colistin in combination with the compound", "setting": "K. pneumoniae CQ1942; Cpd conc. 0.8 μg/mL, strain E", "result": 0.5, "unit": "µg/mL"}, {"measurement": "MIC of colistin in combination with the compound", "setting": "K. pneumoniae CQ1942; Cpd conc. 3.125 μg/mL, strain E", "result": 0.5, "unit": "µg/mL"}, {"measurement": "MIC of colistin in combination with the compound", "setting": "K. pneumoniae CQ1942; Cpd conc. 6.25 μg/mL, strain E", "result": 0.25, "unit": "µg/mL"}, {"measurement": "MIC of colistin in combination with the compound", "setting": "K. pneumoniae CQ1942; Cpd conc. 12.5 μg/mL, strain E", "result": 0.25, "unit": "µg/mL"}, {"measurement": "MIC of colistin in combination with the compound", "setting": "K. pneumoniae CQ1942; Cpd conc. […], strain E", "result": 0.5, "unit": "µg/mL"}, {"measurement": "MIC", "setting": "K. pneumoniae CQ1942; agent alone, no adjuvant (polymyxin conc. 0), strain E, read-out: MIC", "result": "> 100", "unit": "µg/mL"}, {"measurement": "MIC", "setting": "K. pneumoniae CQ1942; [1]", "result": "> 100", "unit": "µg/mL"}, {"measurement": "MIC of compound in combination with PMB", "setting": "K. pneumoniae CQ1942; PMB 0.25 μg/mL, strain E", "result": "> 100", "unit": "µg/mL"}, {"measurement": "MIC of compound in combination with PMB", "setting": "K. pneumoniae CQ1942; PMB 0.5 μg/mL, strain E", "result": "≤ 0.1", "unit": "µg/mL"}, {"measurement": "MIC of compound in combination with colistin", "setting": "K. pneumoniae CQ1942; colistin 0.06 μg/mL, strain E", "result": "> 100", "unit": "µg/mL"}, {"measurement": "MIC of compound in combination with colistin", "setting": "K. pneumoniae CQ1942; colistin 0.125 μg/mL, strain E", "result": "> 100", "unit": "µg/mL"}, {"measurement": "MIC of compound in combination with colistin", "setting": "K. pneumoniae CQ1942; colistin 0.25 μg/mL, strain E", "result": 6.3, "unit": "µg/mL"}, {"measurement": "MIC of compound in combination with colistin", "setting": "K. pneumoniae CQ1942; colistin 0.5 μg/mL, strain E", "result": "≤ 0.1", "unit": "µg/mL"}, {"measurement": "MICA(A + B) (MIC of compound in combination with colistin)", "setting": "K. pneumoniae CQ1942; [2]", "result": 6.25, "unit": "µg/mL"}, {"measurement": "MICB(A + B) (MIC of colistin in combination with compound)", "setting": "K. pneumoniae CQ1942; [2]", "result": 0.25, "unit": "µg/mL"}, {"measurement": "Interpretation (of FICI)", "setting": "K. pneumoniae CQ1942; compound + colistin", "result": "Additive (from 0.5 to 1.0 were additive)"}, {"measurement": "FICI", "setting": "K. pneumoniae CQ1942; [3]", "result": 0.53}]}]}
